From ChEMBL document CHEMBL1201862, “PubChem BioAssay data set” (2004)
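Where inhibition never reached the appropriate level, the endpoint shown equals the highest concentration tested. Otherwise, values were interpolated linearly from a five-concentration, 48-hour dose response in 96-well plates. GI50 marks 50% less growth.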 Calls of active or inactive are those of the source. Rule as the data show it: active = GI50 up to about 1.1 µM and inactive = higher.

Tests used:
Assay in all cases: DTP human tumour cell line panel, 48 h
LOX IMVI = system: LOX IMVI
NCI/ADR-RES = system: NCI/ADR-RES
NCI-H522 = system: NCI-H522
786-0 = system: 786-0
CAKI-1 = system: CAKI-1
UO-31 = system: UO-31
OVCAR-3 = system: OVCAR-3
HOP-62 = system: HOP-62
K562 = system: K562
MOLT-4 = system: MOLT-4
OVCAR-5 = system: OVCAR-5
HT-29 = system: HT-29
PC-3 = system: PC-3
BT-549 = system: BT-549
HL-60 = system: HL-60
U-251 = system: U-251
HCC 2998 = system: HCC 2998
NCI-H226 = system: NCI-H226
SNB-75 = system: SNB-75
A498 = system: A498

| SMILES | GI50 (LOX IMVI) | GI50 (NCI/ADR-RES) | GI50 (NCI-H522) | GI50 (786-0) | GI50 (CAKI-1) | GI50 (UO-31) | GI50 (OVCAR-3) | GI50 (HOP-62) | GI50 (K562) | GI50 (MOLT-4) | GI50 (OVCAR-5) | GI50 (HT-29) | GI50 (PC-3) | GI50 (BT-549) | GI50 (HL-60) | GI50 (U-251) | GI50 (HCC 2998) | GI50 (NCI-H226) | GI50 (SNB-75) | GI50 (A498) |
| --- | --- | --- | --- | --- | --- | --- | --- | --- | --- | --- | --- | --- | --- | --- | --- | --- | --- | --- | --- | --- |
| CC(O)C1(CNc2cc(Cl)nc(N)n2)CCC1 (stereo unspecified) | > 100 µM (inactive) | > 100 µM (inactive) | > 100 µM (inactive) | > 100 µM (inactive) | > 100 µM (inactive) | > 100 µM (inactive) | > 100 µM (inactive) | > 100 µM (inactive) | > 100 µM (inactive) | > 100 µM (inactive) | > 100 µM (inactive) | > 100 µM (inactive) | > 100 µM (inactive) | > 100 µM (inactive) | > 100 µM (inactive) | > 100 µM (inactive) | > 100 µM (inactive) | > 100 µM (inactive) | – | – |
| COC(=O)c1cnn2c1ccc1ccccc12 | > 100 µM (inactive) | > 100 µM (inactive) | > 100 µM (inactive) | > 100 µM (inactive) | > 100 µM (inactive) | 47.8 µM (inactive) | > 100 µM (inactive) | > 100 µM (inactive) | > 100 µM (inactive) | > 100 µM (inactive) | > 100 µM (inactive) | > 100 µM (inactive) | > 100 µM (inactive) | 45.8 µM (inactive) | 45.9 µM (inactive) | > 100 µM (inactive) | – | > 100 µM (inactive) | > 100 µM (inactive) | > 100 µM (inactive) |
| O=S(=O)(/N=c1/[nH]c2ccccc2n1S(=O)(=O)c1ccccc1)c1ccccc1 | > 100 µM (inactive) | 44.9 µM (inactive) | 50.4 µM (inactive) | 67 µM (inactive) | 65.8 µM (inactive) | 36.3 µM (inactive) | 27.9 µM (inactive) | 56.5 µM (inactive) | 32.7 µM (inactive) | 29.2 µM (inactive) | 64.9 µM (inactive) | 44 µM (inactive) | 36.8 µM (inactive) | 41.2 µM (inactive) | – | 22.1 µM (inactive) | – | 56.2 µM (inactive) | 88.3 µM (inactive) | 80.9 µM (inactive) |
| CCOc1ccc2nc(NC(NC(=O)c3cccnc3)(C(F)(F)F)C(F)(F)F)sc2c1 | – | 25.8 µM (inactive) | 23.4 µM (inactive) | 26.5 µM (inactive) | 38.3 µM (inactive) | 6.84 µM (inactive) | 32.6 µM (inactive) | – | 38.4 µM (inactive) | 20.4 µM (inactive) | 25.6 µM (inactive) | 14.1 µM (inactive) | 31.7 µM (inactive) | 30.2 µM (inactive) | 32.4 µM (inactive) | 42.5 µM (inactive) | 22.4 µM (inactive) | 44 µM (inactive) | 23.3 µM (inactive) | – |
| COc1cc2c(c(O)c1OC)C(O)C1CCC(=O)N1C2c1cccc2ccccc12 (stereo unspecified) | – | 54.6 µM (inactive) | 27.7 µM (inactive) | > 100 µM (inactive) | > 100 µM (inactive) | 91.8 µM (inactive) | > 100 µM (inactive) | > 100 µM (inactive) | > 100 µM (inactive) | 58.2 µM (inactive) | > 100 µM (inactive) | > 100 µM (inactive) | 49.7 µM (inactive) | > 100 µM (inactive) | > 100 µM (inactive) | > 100 µM (inactive) | – | > 100 µM (inactive) | 27 µM (inactive) | > 100 µM (inactive) |
| O=C(NNc1nc(-c2ccccc2)cs1)Nc1ccccc1 | – | 20.7 µM (inactive) | – | 30.2 µM (inactive) | 43.3 µM (inactive) | 25.4 µM (inactive) | 13.9 µM (inactive) | 18.7 µM (inactive) | 34.4 µM (inactive) | 27.7 µM (inactive) | 29.4 µM (inactive) | 29 µM (inactive) | 17.3 µM (inactive) | 25.3 µM (inactive) | – | 22.2 µM (inactive) | 25.6 µM (inactive) | 20.4 µM (inactive) | 23.2 µM (inactive) | – |
| CCN(CC)CCOCC1CCCN2CCCCC12 (stereo unspecified) | > 100 µM (inactive) | > 100 µM (inactive) | – | > 100 µM (inactive) | > 100 µM (inactive) | > 100 µM (inactive) | > 100 µM (inactive) | > 100 µM (inactive) | > 100 µM (inactive) | > 100 µM (inactive) | > 100 µM (inactive) | > 100 µM (inactive) | > 100 µM (inactive) | > 100 µM (inactive) | > 100 µM (inactive) | > 100 µM (inactive) | > 100 µM (inactive) | > 100 µM (inactive) | > 100 µM (inactive) | – |
| CN(N=O)C(=N)NC(=O)c1ccccc1 | 49.2 µM (inactive) | > 100 µM (inactive) | > 100 µM (inactive) | > 100 µM (inactive) | > 100 µM (inactive) | > 100 µM (inactive) | > 100 µM (inactive) | > 100 µM (inactive) | > 100 µM (inactive) | > 100 µM (inactive) | > 100 µM (inactive) | > 100 µM (inactive) | > 100 µM (inactive) | > 100 µM (inactive) | – | > 100 µM (inactive) | – | > 100 µM (inactive) | 51.5 µM (inactive) | > 100 µM (inactive) |
| NC(=S)Nc1nc(=S)[nH]c2[nH]ccc12 | 27.7 µM (inactive) | > 100 µM (inactive) | – | > 100 µM (inactive) | > 100 µM (inactive) | 66.7 µM (inactive) | 29.7 µM (inactive) | > 100 µM (inactive) | 31 µM (inactive) | 21.1 µM (inactive) | > 100 µM (inactive) | 99.5 µM (inactive) | 74.3 µM (inactive) | 93.8 µM (inactive) | 19.1 µM (inactive) | 93.1 µM (inactive) | – | > 100 µM (inactive) | < 0.01 µM (active) | > 100 µM (inactive) |
| CC1=CC(=O)/C(=C/n2c(=S)[nH]c3cc(C)ccc32)C(=O)O1 | > 100 µM (inactive) | > 100 µM (inactive) | > 100 µM (inactive) | > 100 µM (inactive) | > 100 µM (inactive) | > 100 µM (inactive) | > 100 µM (inactive) | > 100 µM (inactive) | – | > 100 µM (inactive) | > 100 µM (inactive) | > 100 µM (inactive) | > 100 µM (inactive) | > 100 µM (inactive) | 55.6 µM (inactive) | > 100 µM (inactive) | > 100 µM (inactive) | > 100 µM (inactive) | > 100 µM (inactive) | – |
| Clc1nc(Cl)c(Cc2ccccc2)c(Cl)n1 | 3.03 µM (inactive) | 4.8 µM (inactive) | 1.19 µM (inactive) | 2.36 µM (inactive) | – | 18.2 µM (inactive) | 2.43 µM (inactive) | 6.17 µM (inactive) | 3.08 µM (inactive) | 2.98 µM (inactive) | 21.8 µM (inactive) | 3.94 µM (inactive) | 3.7 µM (inactive) | 3.37 µM (inactive) | 7.45 µM (inactive) | 11.7 µM (inactive) | 13.7 µM (inactive) | 13.3 µM (inactive) | 5.52 µM (inactive) | – |
